Like-named read-outs stand apart in the source and are kept apart here.
What was measured:
PI3Kalpha (PI3Ka) = target: T1, PI3Kalpha (PI3Ka) (Homo sapiens, UniProt P42336); test: kinobeads assay, PI3Kalpha; format: binding
T1 construct: endogenous in cells; host or cells: cell lysate
How it was run: (§1)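 IC50 values derive from per-kinase dose-response curves in a lysate-based competition binding format. Kinases retained on phenylmorpholin-chromen beads in the presence of compound were eluted and detected by multiplexed immunodetection.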

PI3 Kbeta (PI3 Kb) = target: T2, PI3 Kbeta (PI3 Kb) (Homo sapiens, UniProt P42338); test: kinobeads assay, PI3Kbeta; format: binding
T2 construct: endogenous in cells; host or cells: cell lysate
How it was run: as §1

PI3 Kgamma (PI3 Kg) = target: T3, PI3 Kgamma (PI3 Kg) (Homo sapiens, UniProt P48736); test: kinobeads assay, PI3Kgamma; format: binding
T3 construct: endogenous in cells; host or cells: cell lysate
How it was run: as §1

[1] = system: S6RP serine-240/244 phosphorylation; test: In vitro Phospho-S6 cellular assay (pS6RP S240/244) in HEK293T/17 cells; format: cell-based; conditions: Homo sapiens, 2 hours, read-out: pS6 IC50
How it was run: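 HEK293T/17 cells were seeded at 40,000 (pS6RP) or 80,000 (pAkt) cells/well in DMEM with 2% FCS. They were exposed to 8 compound concentrations (0.1% DMSO) for 2 h at 37 °C and then lysed. Phosphoprotein was quantified by MesoScale electrochemiluminescence sandwich immunoassay, and the sigmoidal variable-slope dose-response was fitted.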

[2] = Further Kinobeads Data, read-out: PI3Kb
[3] = Further Kinobeads Data, read-out: PI3Kg
[4] = Further Kinobeads Data, read-out: PI3Ka
[5] = kinobeads assay, Table 6, read-out: Inhibition values (IC50) PI3Ka
[6] = kinobeads assay, Table 6, read-out: Inhibition values (IC50) PI3Kb
[7] = kinobeads assay, Table 6, read-out: Inhibition values (IC50) PI3Kg

T2 sequence (P42338 whole entry): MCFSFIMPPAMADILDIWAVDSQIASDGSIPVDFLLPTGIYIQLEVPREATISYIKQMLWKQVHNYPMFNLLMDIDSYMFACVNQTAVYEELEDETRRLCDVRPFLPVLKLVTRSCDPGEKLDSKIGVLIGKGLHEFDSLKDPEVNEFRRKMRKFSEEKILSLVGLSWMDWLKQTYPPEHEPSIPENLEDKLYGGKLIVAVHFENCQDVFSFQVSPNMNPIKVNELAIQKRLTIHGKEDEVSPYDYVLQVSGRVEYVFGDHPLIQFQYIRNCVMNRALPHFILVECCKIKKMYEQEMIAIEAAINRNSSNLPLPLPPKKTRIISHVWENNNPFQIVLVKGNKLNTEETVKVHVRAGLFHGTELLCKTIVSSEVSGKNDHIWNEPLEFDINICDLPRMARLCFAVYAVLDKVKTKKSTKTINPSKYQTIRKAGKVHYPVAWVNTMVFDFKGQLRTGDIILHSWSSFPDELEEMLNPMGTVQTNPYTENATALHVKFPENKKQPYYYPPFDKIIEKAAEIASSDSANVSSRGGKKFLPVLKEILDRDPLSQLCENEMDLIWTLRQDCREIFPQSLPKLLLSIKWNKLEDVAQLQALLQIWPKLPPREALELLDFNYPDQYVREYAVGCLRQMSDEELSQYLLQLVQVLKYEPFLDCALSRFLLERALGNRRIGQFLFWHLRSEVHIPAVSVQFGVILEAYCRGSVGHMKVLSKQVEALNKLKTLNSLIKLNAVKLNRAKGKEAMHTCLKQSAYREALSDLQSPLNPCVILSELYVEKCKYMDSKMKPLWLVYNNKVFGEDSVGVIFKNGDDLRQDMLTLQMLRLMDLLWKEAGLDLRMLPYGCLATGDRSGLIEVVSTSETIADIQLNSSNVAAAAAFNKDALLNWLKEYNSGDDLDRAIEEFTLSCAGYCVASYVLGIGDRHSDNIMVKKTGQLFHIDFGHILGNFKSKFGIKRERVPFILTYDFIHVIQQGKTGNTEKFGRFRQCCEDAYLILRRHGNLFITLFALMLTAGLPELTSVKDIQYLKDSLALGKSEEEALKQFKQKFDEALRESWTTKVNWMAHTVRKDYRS
T2 sequence (P27986 whole entry partner): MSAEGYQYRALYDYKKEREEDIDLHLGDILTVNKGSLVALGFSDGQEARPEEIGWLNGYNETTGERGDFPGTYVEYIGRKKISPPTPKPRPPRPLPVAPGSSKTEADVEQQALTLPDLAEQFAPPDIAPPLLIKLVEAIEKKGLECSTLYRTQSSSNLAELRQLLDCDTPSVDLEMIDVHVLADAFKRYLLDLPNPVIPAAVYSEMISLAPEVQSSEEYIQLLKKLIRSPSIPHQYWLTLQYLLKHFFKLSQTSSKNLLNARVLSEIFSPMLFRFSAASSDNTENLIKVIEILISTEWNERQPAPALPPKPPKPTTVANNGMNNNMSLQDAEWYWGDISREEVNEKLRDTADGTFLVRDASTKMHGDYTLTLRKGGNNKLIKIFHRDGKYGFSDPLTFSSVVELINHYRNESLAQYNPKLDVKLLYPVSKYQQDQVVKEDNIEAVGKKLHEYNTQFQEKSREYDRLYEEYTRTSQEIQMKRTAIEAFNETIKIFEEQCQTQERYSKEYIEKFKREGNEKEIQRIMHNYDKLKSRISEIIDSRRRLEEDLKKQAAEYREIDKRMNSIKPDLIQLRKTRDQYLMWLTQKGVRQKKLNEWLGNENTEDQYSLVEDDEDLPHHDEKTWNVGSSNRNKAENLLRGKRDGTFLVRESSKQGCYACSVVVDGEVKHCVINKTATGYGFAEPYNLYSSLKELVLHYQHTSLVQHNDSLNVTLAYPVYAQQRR
T3 sequence (P48736 whole entry): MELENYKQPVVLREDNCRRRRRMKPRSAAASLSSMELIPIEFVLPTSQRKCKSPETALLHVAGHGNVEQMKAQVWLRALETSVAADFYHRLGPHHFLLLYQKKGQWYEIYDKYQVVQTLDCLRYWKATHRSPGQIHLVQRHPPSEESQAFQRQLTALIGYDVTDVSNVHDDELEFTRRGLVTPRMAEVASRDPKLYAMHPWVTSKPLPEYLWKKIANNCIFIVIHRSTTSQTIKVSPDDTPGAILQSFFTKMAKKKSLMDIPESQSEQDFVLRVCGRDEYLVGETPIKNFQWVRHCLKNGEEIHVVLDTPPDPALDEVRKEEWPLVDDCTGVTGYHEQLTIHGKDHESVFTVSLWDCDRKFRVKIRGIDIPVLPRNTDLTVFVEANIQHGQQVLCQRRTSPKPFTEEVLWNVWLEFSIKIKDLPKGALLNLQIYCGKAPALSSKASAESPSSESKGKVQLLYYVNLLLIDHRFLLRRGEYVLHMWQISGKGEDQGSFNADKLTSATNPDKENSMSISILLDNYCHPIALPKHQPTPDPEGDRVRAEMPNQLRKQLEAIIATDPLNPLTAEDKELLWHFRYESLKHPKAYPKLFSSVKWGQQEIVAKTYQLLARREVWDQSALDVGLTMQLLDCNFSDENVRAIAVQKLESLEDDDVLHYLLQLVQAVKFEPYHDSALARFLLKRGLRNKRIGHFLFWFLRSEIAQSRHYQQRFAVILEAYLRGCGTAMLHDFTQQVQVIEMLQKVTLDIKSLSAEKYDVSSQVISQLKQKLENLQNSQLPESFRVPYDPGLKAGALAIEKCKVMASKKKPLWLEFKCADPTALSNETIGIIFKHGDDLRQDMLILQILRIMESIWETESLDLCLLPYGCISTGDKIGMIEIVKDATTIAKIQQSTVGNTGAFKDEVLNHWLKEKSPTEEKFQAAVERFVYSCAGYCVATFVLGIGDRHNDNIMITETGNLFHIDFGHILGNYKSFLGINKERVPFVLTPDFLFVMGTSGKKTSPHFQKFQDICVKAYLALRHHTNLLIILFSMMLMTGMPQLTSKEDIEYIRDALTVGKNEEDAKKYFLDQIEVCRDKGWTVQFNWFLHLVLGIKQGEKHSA
T1 sequence (P42336 whole entry): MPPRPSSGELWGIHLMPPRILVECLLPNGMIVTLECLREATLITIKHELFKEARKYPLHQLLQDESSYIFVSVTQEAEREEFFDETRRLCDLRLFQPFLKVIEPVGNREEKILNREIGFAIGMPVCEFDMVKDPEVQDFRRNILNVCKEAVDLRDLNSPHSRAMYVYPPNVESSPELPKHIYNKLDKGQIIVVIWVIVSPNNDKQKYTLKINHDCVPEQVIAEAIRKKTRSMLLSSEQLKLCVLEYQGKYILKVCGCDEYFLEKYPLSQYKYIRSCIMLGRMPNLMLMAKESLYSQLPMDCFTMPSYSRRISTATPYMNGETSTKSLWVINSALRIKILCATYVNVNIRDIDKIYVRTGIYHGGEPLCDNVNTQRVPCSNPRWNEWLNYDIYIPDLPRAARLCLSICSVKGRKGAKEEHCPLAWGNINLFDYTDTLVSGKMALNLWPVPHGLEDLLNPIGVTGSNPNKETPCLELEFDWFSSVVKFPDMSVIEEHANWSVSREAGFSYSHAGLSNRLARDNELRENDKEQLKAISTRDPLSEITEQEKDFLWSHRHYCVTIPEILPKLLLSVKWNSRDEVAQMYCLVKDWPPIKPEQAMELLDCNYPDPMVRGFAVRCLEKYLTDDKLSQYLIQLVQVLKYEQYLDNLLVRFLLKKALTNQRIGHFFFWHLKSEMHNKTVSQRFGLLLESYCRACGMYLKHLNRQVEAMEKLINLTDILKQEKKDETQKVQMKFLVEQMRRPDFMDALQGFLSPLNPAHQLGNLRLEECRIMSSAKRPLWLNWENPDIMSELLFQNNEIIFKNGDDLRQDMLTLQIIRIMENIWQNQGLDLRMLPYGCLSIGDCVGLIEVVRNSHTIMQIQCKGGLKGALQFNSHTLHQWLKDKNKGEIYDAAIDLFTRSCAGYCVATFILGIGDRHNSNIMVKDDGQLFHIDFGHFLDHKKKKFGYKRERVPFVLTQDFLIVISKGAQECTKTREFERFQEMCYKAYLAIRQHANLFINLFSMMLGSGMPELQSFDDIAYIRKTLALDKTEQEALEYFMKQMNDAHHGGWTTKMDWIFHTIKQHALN
T1 sequence (P27986 whole entry partner): as the sequence (P27986 whole entry partner) above

| PI3Ka (PI3Kalpha (PI3Ka); Further Kinobeads Data) | IC50 (PI3 Kbeta (PI3 Kb); [2]) | IC50 (PI3 Kgamma (PI3 Kg); [3]) | IC50 [1] | IC50 (PI3Kalpha (PI3Ka); [4]) | IC50 (PI3Kalpha (PI3Ka); [5]) | IC50 (PI3 Kbeta (PI3 Kb); [6]) | IC50 (PI3 Kgamma (PI3 Kg); [7]) | Inhibition values (IC50) PI3Ka (PI3Kalpha (PI3Ka); kinobeads assay, Table 6) | SMILES |
| --- | --- | --- | --- | --- | --- | --- | --- | --- | --- |
| D (D >10 μM) | > 10000 nM | > 10000 nM | 133 nM | – | – | – | – | – | CC(C)NC(=O)N1CCc2c(nc(-c3ccc(NC(=O)NC4CC4)cc3F)nc2N2CCOC[C@@H]2C)C1 [Example 189, (S)-2-(4-(3-cyclopropylureido)-2-fluorophenyl)-N-isopropyl-4-(3-methylmorpholino)-5,6-dihydropyrido[3,4-d]pyrimidine-7(8H)-carboxamide] |
| – | > 10000 nM | > 10000 nM | 218 nM | 1000 to 10000 nM | – | – | – | – | C[C@@H]1COCCN1c1nc(-c2ccc(NC(=O)NC3CC3)cc2F)nc2c1CN(C(=O)C1CC1)C2 [Example 188, (R)-1-(4-(6-(cyclopropanecarbonyl)-4-(3-methylmorpholino)-6,7-dihydro-5H-pyrrolo[3,4-d]pyrimidin-2-yl)-3-fluorophenyl)-3-cyclopropylurea] |
| D (D >10 μM) | > 10000 nM | > 10000 nM | 163 nM | – | – | – | – | – | C[C@H]1COCCN1c1nc(-c2ccc(NC(=O)NC3CC3)cc2F)nc2c1CN(C(=O)N(C)C)C2 [Example 178, (S)-2-(4-(3-cyclopropylureido)-2-fluorophenyl)-N,N-dimethyl-4-(3-methylmorpholino)-5H-pyrrolo[3,4-d]pyrimidine-6(7H)-carboxamide] |
| – | – | – | 98 nM | – | – | > 10000 nM | > 10000 nM | D (D >10 μM) | C[C@H]1COCCN1c1nc(-c2ccc(NC(=O)NC3CC3)cc2)nc2c1CN(CC(C)(C)C)C2 [Example 25, (S)-1-cyclopropyl-3-(4-(4-(3-methylmorpholino)-6-neopentyl-6,7-dihydro-5H-pyrrolo[3,4-d]pyrimidin-2-yl)phenyl)urea] |
| D (D >10 μM) | > 10000 nM | > 10000 nM | 510 nM | – | – | – | – | – | CCNC(=O)Nc1ccc(-c2nc3c(c(N4CCOC[C@@H]4C)n2)CCNC3)c(F)c1 [Example 164, (S)-1-ethyl-3-(3-fluoro-4-(4-(3-methylmorpholino)-5,6,7,8-tetrahydropyrido[3,4-d]pyrimidin-2-yl)phenyl)urea] |
| – | 1000 to 10000 nM | > 10000 nM | 114 nM | 1000 to 10000 nM | – | – | – | – | CCNC(=O)Nc1ccc(-c2nc3c(c(N4CCOCC4)n2)CN(C(=O)OC)C3)c(F)c1 [Example 162, methyl 2-(4-(3-ethylureido)-2-fluorophenyl)-4-morpholino-5H-pyrrolo[3,4-d]pyrimidine-6(7H)-carboxylate] |
| – | > 10000 nM | > 10000 nM | 271 nM | 1000 to 10000 nM | – | – | – | – | CN1Cc2nc(-c3ccc(NC(=O)NC4CC4)cc3F)nc(N3CCOCC3)c2C1 [Example 159, 1-(Cyclopropyl)-3-(3-fluoro-4-(6-methyl-4-morpholino-6,7-dihydro-5H-pyrrolo[3,4-d]pyrimidin-2-yl)phenyl)urea] |
| D (D >10 μM) | > 10000 nM | > 10000 nM | 172 nM | – | – | – | – | – | COC(=O)N1Cc2nc(-c3ccc(NC(=O)NC4CC4)cc3F)nc(N3CCOCC3)c2C1 [Example 173, Methyl 2-(4-(3-cyclopropylureido)-2-fluorophenyl)-4-morpholino-5H-pyrrolo[3,4-d]pyrimidine-6(7H)-carboxylate] |
| D (D >10 μM) | > 10000 nM | > 10000 nM | 545 nM | – | – | – | – | – | CC(C)C(=O)N1Cc2nc(-c3ccc(NC(=O)NC4CC4)cc3F)nc(N3CCOC[C@@H]3C)c2C1 [Example 174, (S)-1-cyclopropyl-3-(3-fluoro-4-(6-isobutyryl-4-(3-methylmorpholino)-6,7-dihydro-5H-pyrrolo[3,4-d]pyrimidin-2-yl)phenyl)urea] |
| D (D >10 μM) | > 10000 nM | > 10000 nM | 436 nM | – | – | – | – | – | CCNC(=O)Nc1ccc(-c2nc3c(c(N4CCOCC4)n2)CN(C)C3)c(F)c1 [Example 154, 1-ethyl-3-(3-fluoro-4-(6-methyl-4-morpholino-6,7-dihydro-5H-pyrrolo[3,4-d]pyrimidin-2-yl)phenyl)urea] |
| – | – | – | 115 nM | – | 1000 to 10000 nM | > 10000 nM | > 10000 nM | – | CCNC(=O)Nc1ccc(-c2nc3c(c(N4CCOC[C@@H]4C)n2)CN(C(=O)C2CC2)C3)cc1 [Example 23, (S)-1-(4-(6-(cyclopropanecarbonyl)-4-(3-methylmorpholino)-6,7-dihydro-5H-pyrrolo[3,4-d]pyrimidin-2-yl)phenyl)-3-ethylurea] |
| D (D >10 μM) | > 10000 nM | > 10000 nM | 351 nM | – | – | – | – | – | C[C@@H]1COCCN1c1nc(-c2ccc(NC(=O)NC3CC3)cc2F)nc2c1CN(C=O)C2 [Example 190, (R)-1-cyclopropyl-3-(3-fluoro-4-(6-formyl-4-(3-methylmorpholino)-6,7-dihydro-5H-pyrrolo[3,4-d]pyrimidin-2-yl)phenyl)urea] |
| – | – | – | 120 nM | – | – | > 10000 nM | > 10000 nM | D (D >10 μM) | C[C@H]1COCCN1c1nc(-c2ccc(NC(=O)NC3CC3)cc2)nc2c1CCN(CC(C)(C)C)C2 [Example 41, (S)-1-cyclopropyl-3-(4-(4-(3-methylmorpholino)-7-neopentyl-5,6,7,8-tetrahydropyrido[3,4-d]pyrimidin-2-yl)phenyl)urea] |

The next lines start with the compound.

| SMILES | PI3Ka (PI3Kalpha (PI3Ka); Further Kinobeads Data) | IC50 (PI3 Kbeta (PI3 Kb); [2]) | IC50 (PI3 Kgamma (PI3 Kg); [3]) | IC50 [1] | IC50 (PI3Kalpha (PI3Ka); [4]) | IC50 (PI3Kalpha (PI3Ka); [5]) | IC50 (PI3 Kbeta (PI3 Kb); [6]) | IC50 (PI3 Kgamma (PI3 Kg); [7]) | Inhibition values (IC50) PI3Ka (PI3Kalpha (PI3Ka); kinobeads assay, Table 6) |
| --- | --- | --- | --- | --- | --- | --- | --- | --- | --- |
| CCNC(=O)Nc1ccc(-c2nc3c(c(N4CCOC[C@@H]4C)n2)CCN(CC)C3)cc1 [Example 27, (S)-1-ethyl-3-(4-(7-ethyl-4-(3-methylmorpholino)-5,6,7,8-tetrahydropyrido[3,4-d]pyrimidin-2-yl)phenyl)urea] | – | – | – | 24 nM | – | 1000 to 10000 nM | 1000 to 10000 nM | 1000 to 10000 nM | – |
| CCNC(=O)Nc1ccc(-c2nc3c(c(N4CCOC[C@@H]4C)n2)CCN(C(=O)C(C)C)C3)cc1 [Example 57, (S)-1-ethyl-3-(4-(7-isobutyryl-4-(3-methylmorpholino)-5,6,7,8-tetrahydropyrido[3,4-d]pyrimidin-2-yl)phenyl)urea] | – | – | – | 32 nM | – | – | > 10000 nM | > 10000 nM | D (D >10 μM) |
| CCNC(=O)Nc1ccc(-c2nc3c(c(N4CCOC[C@@H]4C)n2)CCN(C(=O)C2CC2)C3)cc1 [Example 56, (S)-1-(4-(7-(cyclopropanecarbonyl)-4-(3-methylmorpholino)-5,6,7,8-tetrahydropyrido[3,4-d]pyrimidin-2-yl)phenyl)-3-ethylurea] | – | – | – | 32 nM | – | – | > 10000 nM | > 10000 nM | D (D >10 μM) |
| CCNC(=O)Nc1ccc(-c2nc3c(c(N4CCOC[C@@H]4C)n2)CN(C(=O)C(C)C)C3)cc1 [Example 21, (S)-1-ethyl-3-(4-(6-isobutyryl-4-(3-methylmorpholino)-6,7-dihydro-5H-pyrrolo[3,4-d]pyrimidin-2-yl)phenyl)urea] | – | – | – | 111 nM | – | 1000 to 10000 nM | > 10000 nM | > 10000 nM | – |
| CCNC(=O)Nc1ccc(-c2nc3c(c(N4CCOC[C@@H]4C)n2)CN(C(=O)c2ccc(F)cc2)C3)cc1 [Example 19, (S)-1-ethyl-3-(4-(6-(4-fluorobenzoyl)-4-(3-methylmorpholino)-6,7-dihydro-5H-pyrrolo[3,4-d]pyrimidin-2-yl)phenyl)urea] | – | – | – | 135 nM | – | – | > 10000 nM | > 10000 nM | D (D >10 μM) |
| CCNC(=O)Nc1ccc(-c2nc3c(c(N4CCOC[C@@H]4C)n2)CCN(C(=O)c2ccc(F)cc2)C3)cc1 [Example 24, (S)-1-ethyl-3-(4-(7-(4-fluorobenzoyl)-4-(3-methylmorpholino)-5,6,7,8-tetrahydropyrido[3,4-d]pyrimidin-2-yl)phenyl)urea] | – | – | – | 126 nM | – | – | > 10000 nM | > 10000 nM | D (D >10 μM) |
| CC(C)N1Cc2nc(-c3ccc(NC(=O)NCCF)cc3F)nc(N3CCOCC3)c2C1 [Example 185, 1-(3-fluoro-4-(6-isopropyl-4-morpholino-6,7-dihyro-5H-pyrrolo[3,4-d]pyrimidin-2-yl)phenyl)-3-(2-fluoroethyl)urea] | – | > 10000 nM | > 10000 nM | 360 nM | 1000 to 10000 nM | – | – | – | – |
| CCNC(=O)Nc1ccc(-c2nc3c(c(N4CCOC[C@@H]4C)n2)CCN(C)C3)cc1 [Example 35, (S)-1-ethyl-3-(4-(7-methyl-4-(3-methylmorpholino)-5,6,7,8-tetrahydropyrido[3,4-d]pyrimidin-2-yl)phenyl)urea] | – | – | – | 37 nM | – | – | > 10000 nM | > 10000 nM | D (D >10 μM) |
| CCOC(=O)N1Cc2nc(-c3ccc(NC(=O)NCCF)cc3F)nc(N3CCOCC3)c2C1 [Example 170, ethyl 2-(2-fluoro-4-(3-(2-fluoroethyl)ureido)phenyl)-4-morpholino-5H-pyrrolo[3,4-d]pyrimidine-6(7H)-carboxylate] | D (D >10 μM) | > 10000 nM | > 10000 nM | 105 nM | – | – | – | – | – |

Reference: patent US8785457B2 (Cellzome Limited, priority 2009, dated 2014)
